Results reported in the NIST ThermoML archive (doi:10.1021/acs.jced.9b00152).
± gives the expanded uncertainty stated by the source.

Key:
[1] = Liquid, Ebulliometric method (Recirculating still)
[2] = Boiling temperature at pressure P; conditions: Liquid, Ebulliometric method (Recirculating still)

CC(=O)OC(C)C [1-methylethyl ethanoate]
[1]
Conditions	vapor or sublimation pressure [kPa]
317.77 K	20 ± 1
334.75 K	40 ± 1
345.94 K	60 ± 1
354.29 K	80 ± 1
361.79 K	101.3 ± 1.7

CC(=O)O [acetic acid]
Conditions	Boiling temperature at pressure P [°C]	vapor or sublimation pressure [kPa]
[1], 345.03 K	–	20 ± 1
[1], 363.04 K	–	40 ± 1
[1], 374.54 K	–	60 ± 1
[1], 383.32 K	–	80 ± 1
[1], 390.93 K	–	101.3 ± 1.6
[2], 17 kPa	68.2 ± 0.47	–
[2], 18.47 kPa	69.72 ± 0.54	–
[2], 20.01 kPa	71.88 ± 0.58	–
[2], 21.29 kPa	73.26 ± 0.55	–
[2], 23.18 kPa	75.34 ± 0.58	–
[2], 24.92 kPa	77.20 ± 0.59	–
[2], 27.44 kPa	79.73 ± 0.6	–
[2], 29.78 kPa	81.86 ± 0.6	–
[2], 32.78 kPa	84.39 ± 0.61	–
[2], 34.97 kPa	86.11 ± 0.61	–
[2], 39.99 kPa	89.89 ± 0.6	–
[2], 48.99 kPa	95.41 ± 0.64	–
[2], 55.76 kPa	99.12 ± 0.67	–
[2], 60.04 kPa	101.39 ± 0.67	–
[2], 64.44 kPa	103.51 ± 0.68	–
[2], 69.39 kPa	105.90 ± 0.7	–
[2], 75.23 kPa	108.5 ± 0.67	–
[2], 79.98 kPa	110.17 ± 0.67	–
[2], 83.66 kPa	111.67 ± 0.7	–
[2], 87.18 kPa	112.92 ± 0.68	–
[2], 97.08 kPa	116.43 ± 0.73	–
[2], 101.3 kPa	117.78 ± 0.71	–

CCCOC(C)=O [propyl ethanoate]
Conditions	Boiling temperature at pressure P [°C]	vapor or sublimation pressure [kPa]
[1], 329.58 K	–	20 ± 1
[1], 347.21 K	–	40 ± 1
[1], 358.6 K	–	60 ± 1
[1], 367.13 K	–	80 ± 1
[1], 374.66 K	–	101.3 ± 1.7
[2], 14.9 kPa	49.47 ± 0.51	–
[2], 16.6 kPa	51.86 ± 0.55	–
[2], 18.56 kPa	54.62 ± 0.58	–
[2], 20 kPa	56.43 ± 0.53	–
[2], 24.75 kPa	61.56 ± 0.59	–
[2], 27.99 kPa	64.63 ± 0.57	–
[2], 33.06 kPa	68.81 ± 0.6	–
[2], 37.76 kPa	72.40 ± 0.64	–
[2], 40.07 kPa	74.06 ± 0.62	–
[2], 44.38 kPa	76.90 ± 0.64	–
[2], 48.69 kPa	79.58 ± 0.62	–
[2], 54.33 kPa	82.51 ± 0.63	–
[2], 60.03 kPa	85.5 ± 0.65	–
[2], 66.87 kPa	88.7 ± 0.66	–
[2], 73.94 kPa	91.7 ± 0.67	–
[2], 79.95 kPa	93.98 ± 0.67	–
[2], 85.25 kPa	95.92 ± 0.69	–
[2], 91.51 kPa	98.26 ± 0.7	–
[2], 101.26 kPa	101.51 ± 0.73	–
